Data reported in patent US20150064200A1, “METHODS AND COMPOSITIONS FOR 6-PHOSPHOGLUCONATE DEHYDROGENASE (6-PGD) AS A TARGET FOR LUNG CANCER THERAPY” (BETH ISRAEL DEACONESS MEDICAL CENTER, INC., priority 2012, published 2015).
Several values for one entry are separate records, joined by “and”; a condition that tells them apart may be missing. Identical values can stand only once.

How the values were obtained:
[1] = tested on: 6-PGD; assay: Western blot of 6-PGD expression after inducible shRNA knockdown; assay type: cell-based, human; conditions: H1975 cells
Excerpt: (§1) To test the functional role of 6-PGD in human non small cell lung carcinoma (NSCLC), we used H1975 cells as our model system (FIG. 2A). These adenocarcinoma cells harbor two mutations in the EGFR (L858R/T790M) and are widely used to study the mechanism and treatment of gefitinib/erlotinib-resistant lung cancer cells. We chose to use an inducible shRNA system to knock down 6-PGD expression. Three nonoverlapping shRNAs were chosen in these experiments. […] Importantly, 6-PGD expression knockdown caused a substantial decrease in cell proliferation. To further corroborate the involvement of 6-PGD in NSCLC proliferation in vitro, we performed expression rescue experiments (FIG. 2B). H1975 cells expressing control shRNA or 6-PGD shRNA1 were transduced by either empty- or mouse-6PGD retrovirus. […] Overexpression of mouse 6-PGD alone enhanced H1975 cell growth. […] Our result confirmed that the growth inhibition was due to 6-PGD knockdown and not a non-specific artifact of the shRNA.

[2] = tested on: senescence-associated beta galactosidase (SA-β-GAL) activity; assay: Senescence-associated beta galactosidase (SA-β-GAL) staining and chromogenic assay; assay type: cell-based, human; conditions: cells with 6-PGD knockdown
Excerpt: We noticed that the cells with 6-PGD knocked down were enlarged and flattened-shapes characteristic of cells undergoing senescence. We therefore stained the cells for senescence-associated beta galactosidase (SA-β-GAL) activity. Because shRNA1 and shRNA2 had the most dramatic effects on 6-PGD expression and cell proliferation, we opted to test these two shRNAs in these experiments. […] Therefore, we concluded that suppression of 6-PGD induces cellular senescence in these cancer cells.
We tested whether the use of glucose or fructose in the medium might influence the phenotypic outcome of 6-PGD suppression. Fructose can be used to generate glycolytic metabolites via different pathways. For example, in the liver, fructose can be phosphorylated by fructokinase to yield fructose-1-phosphate and ultimately glyceraldehyde-3-phosphate to re-enter glycolysis. Fructose can also enter glycolysis when phosphorylated by hexokinase to become fructose-6-phosphate. We reasoned that if H1975 could metabolize fructose by these mechanisms, cells grown in fructose without glucose would likely be devoid of glucose-6-phosphate, bypassing the oxidative branch of the PPP. This scenario may be similar to the PPP shutdown by means of G6PD depletion. H1975 cells were treated with doxycycline to induce 6-PGD knockdown in 2 g/L fructose (no glucose). […]

[3] = tested on: p53; assay: Western blot of p53 expression in cells with 6-PGD knockdown; assay type: cell-based, human; conditions: H1975 cells
Excerpt: One of the main mechanisms for cellular senescence induction is the p53 pathway. Therefore we hypothesized that p53 expression might be increased in cells with 6-PGD knockdown.

[4] = tested on: H1975 cells; assay: Oxygen consumption rate (OCR); assay type: cell-based, human
Excerpt: We suspected that upon 6-PGD knockdown, these cells might have maintained NADPH level by enhanced glutaminolysis, another major mechanism for NADPH production. We therefore examined the rate of oxygen consumption of these cells, as NADPH production via glutaminolysis requires oxygen.

[5] = tested on: H1975 cells; assay: H1975 xenograft tumor growth in nude mice; assay type: in vivo; conditions: H1975 cells induced with doxycycline, subcutaneous in nude mice, tumors weighed after 18 days
Excerpt: We sought to test whether 6-PGD knockdown would inhibit tumor growth in a xenograft model. Control shRNA-, 6-PGD shRNA1, and 6-PGD shRNA2-H1975 cells were induced with doxycycline in vitro for three days prior to subcutaneous injection into nude mice. Mice were fed with doxycycline supplemented in drinking water. Tumors were excised after 18 days and weighed.

[6] = tested on: H1975 cells; assay: Cell proliferation of H1975 cells upon knockdown; assay type: cell-based, human; conditions: 6-PGD knockdown
Excerpt: as §1
The dramatic decrease in cell proliferation when 6-PGD was knocked down implies that the oxidative branch of the pentose phosphate pathway (PPP) could be indispensable for cell growth. […] To address this discrepancy, we next knocked down G6PD by transient siRNA transfection in H1975 cells. […] Therefore, the dramatic growth inhibition observed when 6-PGD was knocked down was not simply a result of PPP blockade. […]

[7] = tested on: H1975 cells; assay: Metabolite levels by mass spectrometry upon 6-PGD knockdown; assay type: cell-based, human; conditions: H1975, doxycycline three days, vs control shRNA
Experimental: Both control- and 6-PGD shRNA1-expressing H1975 cells were treated with doxycycline for three days. Metabolites were extracted for analysis by mass spectrometry. Results are grouped according to metabolic pathways (Table 5). […] Specifically, as might be expected, 6-phospho-D-gluconate and D-glucono-δ-lactone-6-phosphate levels were up by 11 and 7.9 fold, respectively. Direct determination of the effects in the non-oxidative branch was more difficult, as levels of some key intermediates such as xylulose-5-phosphate and D-sedo-heptulose-7-phosphate were not determined in our mass spectrometric analysis. However, there was no change in the level of total ribose phosphates, downstream products of the PPP. Importantly, levels of all the triphosphate nucleotides essential for DNA and RNA synthesis were essentially unchanged. […] Glycolysis also appeared to be affected by 6-PGD knockdown. Both glucose-6-phosphate and fructose-6-phosphate levels were increased, perhaps due to a backlog in the PPP. […] We believe that these intermediates were shunted to the non-oxidative PPP via the transketolase reactions using glyceraldehyde-3-phosphate as the entry point. These transketolase reactions would compensate for the blockade at 6-PGD and provide a carbon source for ribose phosphate production and maintenance of dNTP/NTP levels. […] In particular NADPH level was determined by this metabolomic analysis to be also unchanged by 6-PGD knockdown, consistent with result obtained by the colorimetric assay (FIG. 5A).

[8] = tested on: mouse 6-PGD; assay: Western blot of exogenous mouse 6-PGD expression in rescue experiment; assay type: cell-based; conditions: H1975 cells transduced with mouse-6PGD retrovirus, doxycycline induction
Excerpt: as §1

shRNA2: 6-PGD specific shRNA from Open Biosystems, Oligo ID V3LHS_381995, mature sequence AGG ACU GUC UCC AAA GUU G (guide AGGACUGUCUCCAAAGUUG; shRNA hairpin; mature sequence only)
expression of 6-PGD [1]: most effective | number of cells positive for SA-β-GAL staining [2]: significantly increased | p53 expression [3]: significantly upregulated | oxygen consumption rate (OCR) [4]: significant increase | tumor growth [5]: significantly retarded tumor growth

shRNA1: 6-PGD specific shRNA from Open Biosystems, Oligo ID V3LHS_381993, mature sequence AGU UUG AUG GUG AUA AGA A (guide AGUUUGAUGGUGAUAAGAA; shRNA hairpin; mature sequence only)
expression of 6-PGD [1]: most effective | cell proliferation [6]: significantly blocked proliferation | number of cells positive for SA-β-GAL staining [2]: significantly increased | p53 expression [3]: significantly upregulated | oxygen consumption rate (OCR) [4]: significant increase | Fold Change Glutamate ([7]; Glutamine/Glutamate): −1.1 fold | Fold Change Glutamine ([7]; Glutamine/Glutamate): −1.1 fold | Fold Change 1,3-Diphopshateglycerate ([7]; Glycolysis): 0.0 fold | Fold Change 3-Phosphoglycerate ([7]; Glycolysis): −2.1 fold | Fold Change D-Glyceraldehdye-3-phosphate ([7]; Glycolysis): −3.8 fold | Fold Change Dihyroxyacetone-phosphate ([7]; Glycolysis): −5.9 fold | Fold Change Fructose-1,6-bisphosphate ([7]; Glycolysis): −4.6 fold | Fold Change Fructose-6-phosphate ([7]; Glycolysis): 1.4 fold | Fold Change Glucose-6-phosphate ([7]; Glycolysis): 1.8 fold | Fold Change Lactate ([7]; Glycolysis): −1.2 fold | Fold Change Phosphoenolpyruvate ([7]; Glycolysis): −2.8 fold | Fold Change Pyruvate ([7]; Glycolysis): 1.3 fold | Fold Change ATP ([7]; NTPs/dNTPs): 1.2 fold | Fold Change CTP ([7]; NTPs/dNTPs): 1.0 fold | Fold Change GTP ([7]; NTPs/dNTPs): 1.5 fold | Fold Change UTP ([7]; NTPs/dNTPs): 1.2 fold | Fold Change dATP ([7]; NTPs/dNTPs): −1.1 fold | Fold Change dCTP ([7]; NTPs/dNTPs): 1.0 fold | Fold Change dGTP ([7]; NTPs/dNTPs): 1.2 fold | Fold Change dTTP ([7]; NTPs/dNTPs): −1.2 fold | Fold Change D-Glucono-δ-lactone-6-phosphate ([7]; PPP): 7.9 fold | Fold Change Ribose-phosphate ([7]; PPP): 1.2 fold | Fold Change 6-Phospho-D-gluconate ([7]; PPP, listed as 6-PGD shRNA1): 11 fold and 11.0 fold | Fold Change Glutathione ([7]; REDOX): −1.3 fold | Fold Change Glutathione disulfide ([7]; REDOX): 1.0 fold | Fold Change NAD+ ([7]; REDOX): 1.2 fold | Fold Change NADH ([7]; REDOX): −1.5 fold | Fold Change NADP+ ([7]; REDOX): 1.3 fold | Fold Change NADPH ([7]; REDOX): −1.1 fold | Fold Change Acetyl-CoA ([7]; TCA): 1.6 fold | Fold Change Citrate ([7]; TCA): 1.1 fold | Fold Change Fumarate ([7]; TCA): 1.0 fold | Fold Change Isocitrate ([7]; TCA): −1.1 fold | Fold Change Malate ([7]; TCA): −1.3 fold | Fold Change Oxaloacetate ([7]; TCA): −1.1 fold | Fold Change Succinate ([7]; TCA): −1.3 fold | Fold Change α-Ketoglutarate ([7]; TCA): −1.2 fold | tumor growth [5]: significantly retarded tumor growth | expression of mouse 6-PGD [8]: without affecting the expression of mouse 6-PGD
